Measurements published in patent publication US20090081197A1 (Palatin Technologies, Inc., priority 2007, published 2009).
Like-named read-outs stand apart in the source and are kept apart here. Positions of bridges follow the written chain, without caps; N, C: chain ends. Non-standard residues stand in square brackets, D forms with d. Residues, ends and D or L forms follow the SMILES beside them. 1Nal = N[C@@H](Cc1cccc2ccccc12)C(=O)O; 2Nal = N[C@@H](Cc1ccc2ccccc2c1)C(=O)O; d2Nal = N[C@H](Cc1ccc2ccccc2c1)C(=O)O; Nle = CCCC[C@H](N)C(=O)O

Experiments:
MC4-R [1] = target: T1, MC4-R (Homo sapiens, UniProt P32245); experiment: cAMP agonist stimulation, high receptor density system (10 ng/mL doxycycline)
T1 sequence (P32245 whole entry): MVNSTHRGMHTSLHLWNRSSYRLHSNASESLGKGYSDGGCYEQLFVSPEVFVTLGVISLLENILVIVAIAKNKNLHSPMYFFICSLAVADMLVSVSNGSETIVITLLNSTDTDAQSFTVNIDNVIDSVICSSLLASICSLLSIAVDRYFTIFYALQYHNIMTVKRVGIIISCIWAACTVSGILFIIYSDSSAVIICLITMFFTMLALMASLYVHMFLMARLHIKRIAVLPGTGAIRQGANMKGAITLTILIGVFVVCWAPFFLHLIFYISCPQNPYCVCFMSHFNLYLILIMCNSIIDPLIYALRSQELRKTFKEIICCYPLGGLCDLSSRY

MC5-R = MC5-R (Homo sapiens, UniProt P33032); experiment: Competitive inhibition assay using [I^125]-NDP-α-MSH, hMC5-R membranes; assay type: binding; design: expressed in transfected cells; conditions: read-out: Inhibition at 1 μM (NDP-α-MSH) In Normal System, MC5-R
Sequence of MC5-R (P33032 whole entry): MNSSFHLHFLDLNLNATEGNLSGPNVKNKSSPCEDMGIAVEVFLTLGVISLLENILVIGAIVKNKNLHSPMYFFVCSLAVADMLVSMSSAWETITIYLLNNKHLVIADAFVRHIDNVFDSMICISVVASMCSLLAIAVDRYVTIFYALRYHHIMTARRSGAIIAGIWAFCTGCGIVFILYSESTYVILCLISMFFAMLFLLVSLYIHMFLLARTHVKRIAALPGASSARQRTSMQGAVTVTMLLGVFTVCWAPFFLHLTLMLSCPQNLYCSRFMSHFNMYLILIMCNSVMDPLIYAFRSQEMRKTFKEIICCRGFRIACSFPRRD
Description: (§1) The ligand concentration used was 0.4 nM for MC3-R and MC5-R, 0.2 nM for MC4-R and 0.1 nM for B16-F10 (MC1-R) membranes. In certain experiments, hMC1-R was also employed.
(§2) The assay mixture was incubated for 90 minutes at room temperature, then filtered and the membranes washed three times with ice cold buffer. The filter was dried and counted in a gamma counter for remaining radioactivity bound to the membranes. […] Each assay was conducted in triplicate and the actual mean values are described, with results less than 0% reported as 0%.

MC1-R = target: T2, MC1-R (Mus musculus, UniProt Q01727); experiment: Competitive inhibition assay using [I^125]-NDP-α-MSH, B-16 mouse melanoma cell membranes; assay type: binding; conditions: read-out: Inhibition at 1 μM (NDP-α-MSH) In Normal System, MC1-R
T2 construct: B-16 mouse melanoma cells (containing MC1-R); endogenous in cells
T2 sequence (Q01727 whole entry): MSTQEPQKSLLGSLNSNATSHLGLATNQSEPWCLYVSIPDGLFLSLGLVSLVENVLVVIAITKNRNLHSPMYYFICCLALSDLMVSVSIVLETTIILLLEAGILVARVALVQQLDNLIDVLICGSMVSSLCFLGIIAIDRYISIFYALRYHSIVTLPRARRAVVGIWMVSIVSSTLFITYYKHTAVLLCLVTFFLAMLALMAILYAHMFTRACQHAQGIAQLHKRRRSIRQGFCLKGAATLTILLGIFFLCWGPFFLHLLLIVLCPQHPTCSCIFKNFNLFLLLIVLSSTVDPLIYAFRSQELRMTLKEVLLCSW
Description: as §1, §2

MC3-R = MC3-R (Homo sapiens, UniProt P41968); experiment: Competitive inhibition assay using [I^125]-NDP-α-MSH, hMC3-R membranes; assay type: binding; design: expressed in transfected cells; conditions: read-out: Inhibition at 1 μM (NDP-α-MSH) In Normal System, MC3-R
Sequence of MC3-R (P41968 whole entry): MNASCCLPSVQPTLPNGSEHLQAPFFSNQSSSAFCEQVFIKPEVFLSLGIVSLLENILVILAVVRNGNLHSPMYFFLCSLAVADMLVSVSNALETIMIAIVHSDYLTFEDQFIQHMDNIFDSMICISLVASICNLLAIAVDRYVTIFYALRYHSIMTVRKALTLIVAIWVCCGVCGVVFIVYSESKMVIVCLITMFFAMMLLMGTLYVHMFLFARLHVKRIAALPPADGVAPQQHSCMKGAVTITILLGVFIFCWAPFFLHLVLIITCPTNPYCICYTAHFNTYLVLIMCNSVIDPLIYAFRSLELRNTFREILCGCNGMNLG
Description: as §1, §2

MC4-R [2] = target: T1, MC4-R; experiment: Competitive inhibition assay using [I^125]-NDP-α-MSH, hMC4-R membranes; assay type: binding; design: host or cells: TREx-293 (HEK-293 stably expressing Tet repressor); conditions: for inhibition at 1 µM: read-out: Inhibition at 1 μM (NDP-α-MSH) In Normal System, MC4-R; for Ki: read-out: Ki (nM) (NDP-α-MSH) In Normal System, MC4-R
Description: as §1, §2

MC4-R [3] = target: T1, MC4-R; experiment: cAMP agonist stimulation, low receptor density system (0.1 ng/mL doxycycline)
[4] = Penile erection induction in male rats; assay type: in vivo; conditions: rat
Description: Penile erection induction. The ability of compounds to induce penile erection (PE) in male rats was evaluated with selected compounds. Male Sprague-Dawley rats weighing 200-250 g were kept on a 12 hour on/off light cycle with food and water ad libitum. All behavioral studies were performed between 10 A.M. and 5 P.M. Groups of 4-8 rats were treated with compounds at a variety of doses via intravenous (IV) or intracerebroventricular (ICV) routes. Immediately after treatment, rats were placed into individual polystyrene cages (27 cm long, 16 cm wide, and 25 cm high) for behavioral observation. […] Controls utilized carrier without the test compound. Mean PEs in control groups were 0.17 to 0.5 PEs/rat by IV administration in various experiments and between 1-2 PEs/rat by ICV administration in various experiments, and thus only PEs with statistically relevant increases over the mean PEs in control groups are reported as inducing PEs. A PE response in IV animals greater than the mean PEs in control groups but less than 1.0 PEs/rat, particularly with less than all animals responding, was treated as equivocal, and not necessarily distinguishable from vehicle control. In selected instances, compounds with equivocal results in the IV model were tested for penile response in an ICV model, and compounds without a statistically relevant increase over the mean PEs in ICV control groups were determined to not induce PEs.

MC4-R [5] = target: T1, MC4-R; experiment: cAMP functional activity assay in HEK-293 cells, normal system; assay type: cell-based; design: expressed in transfected cells; host or cells: HEK-293; conditions: at 1 nM dose
Description: General method for EC50 determination in functional activity assay. […] Data analysis and EC50 values were determined using nonlinear regression analysis with Prism Graph-Pad software.
Functional status. The agonist/antagonist status with respect to MC1-R, MC-3R, MC4-R and MC5-R of certain compounds of the invention was determined. Antagonistic activity was determined by measuring the inhibition of α-MSH-induced or NDP-α-MSH-induced cAMP levels following exposure to graded doses of compounds as in the preceding descriptions.
Assay for agonist. Evaluation of the molecules to elicit a functional response in HEK-293 cells expressing MC4-R was accomplished by measuring the accumulation of intracellular cAMP following treatment. Confluent HEK-293 cells expressing MC4-R receptors were detached by enzyme free cell suspension buffer. […] The cells were plated in a 96 well plates at a density of 0.5×10^5 cells per well and pre-incubated for 30 minutes. Test compounds (dissolved in dimethylsulfoxide (DMSO) at a concentration range of 0.05-5000 nM) were added in a total assay volume of 200 μL and cells were incubated for 1 hour at 37° C. The concentration of DMSO was always held at 1% in the assay mixture. NDP-α-MSH was used as the reference agonist. […] Data analysis and EC50 values were determined by using nonlinear regression analysis with Prism Graph-Pad software. […] Compounds with a response ratio of less than 0.1 (10%) were evaluated for antagonistic activity.

Compound | EC50 (MC4-R [1]) [nM] | inhibition at 1 µM (MC5-R; 1 μM test compound) [%] | inhibition at 1 µM (MC1-R; 1 μM test compound) [%] | inhibition at 1 µM (MC3-R; 1 μM test compound) [%] | inhibition at 1 µM (MC4-R [2]; 1 μM test compound) [%] | Ki (MC4-R [2]) [nM] | other results
C[C@H](NC(=O)[C@H](CCCNC(=N)N)NC(=O)[C@@H](Cc1ccc(Cl)cc1)NC(=O)[C@H](COCc1ccccc1)NC(=O)CCCCCCN)c1cccc2ccccc12 [Example 16, 7′-amino-heptanoyl-Ser(Bzl)-D-Phe(4-Cl)-Arg-S-(−)-1-(1-naphthyl)ethylamide] | 180 |  |  |  |  |  | 
CCCC[C@H](NC(C)=O)C(=O)N[C@H]1CC(=O)NCCCC[C@@H](C(=O)N(C)C)NC(=O)[C@H](Cc2cccc3ccccc23)NC(=O)[C@H](CCCNC(=N)N)NC(=O)[C@@H](Cc2ccccc2)NC(=O)[C@H](Cc2c[nH]c3ccccc23)NC1=O [Example 36, Ac-Nle-cyclo(-Asp-Trp-D-Phe-Arg-Nal 1-Lys)-N(CH3)2] (Ac-[Nle]DW[dF]R[1Nal]K-NMe2; lactam 2-7) | 4 | 92 | 71 | 83 | 99 | 38 | 
CCCC[C@H](NC(C)=O)C(=O)N[C@H]1CC(=O)NCCCC[C@@H](C(=O)O)NC(=O)[C@H](Cc2c[nH]c3ccccc23)NC(=O)[C@H](CCCNC(=N)N)NC(=O)[C@@H](Cc2ccccc2)NC(=O)[C@H](Cc2c[nH]cn2)NC1=O [PT-141, cyclo 2,7[Ac-Nle-Asp-His-D-Phe-Arg-Trp-Lys]-OH, reference compound] |  |  |  |  |  |  | Penile Erection ICV ([4]; ICV): Yes**; Penile Erection IV ([4]; IV): Yes**
CNC(=O)[C@@H]1CCCCNC(=O)C[C@H](NC(C)=O)C(=O)N[C@@H](Cc2c[nH]c3ccccc23)C(=O)N[C@H](Cc2ccc3ccccc3c2)C(=O)N[C@@H](CCCNC(=N)N)C(=O)N[C@@H](Cc2ccc3ccccc3c2)C(=O)N1 [Example 35, Ac-cyclo(Asp-Trp-D-Nal 2-Arg-Nal 2-Lys)-NH—CH3] (Ac-DW[d2Nal]R[2Nal]K-NHMe; lactam 1-6) |  |  |  |  |  |  | inhibition at 1 µM (MC5-R): 98%; inhibition at 1 µM (MC1-R): 67%; inhibition at 1 µM (MC3-R): 99%; functional status at MC4-R in cAMP assay (MC4-R [5]): inactive; inhibition at 1 µM (MC4-R [2]): 100%

Now from value to compound, other results behind:

EC50 (MC4-R [1]) [nM] | inhibition at 1 µM (MC5-R; 1 μM test compound) [%] | inhibition at 1 µM (MC1-R; 1 μM test compound) [%] | inhibition at 1 µM (MC3-R; 1 μM test compound) [%] | inhibition at 1 µM (MC4-R [2]; 1 μM test compound) [%] | Ki (MC4-R [2]) [nM] | Compound | other results
1.1 | 93 | 100 | 93 | 98 | 2 | CCCC[C@H](NC(C)=O)C(=O)N[C@H]1CC(=O)NCCCC[C@@H](C(=O)NCC)NC(=O)[C@H](Cc2cccc3ccccc23)NC(=O)[C@H](CCCNC(=N)N)NC(=O)[C@@H](Cc2ccccc2)NC(=O)[C@H](Cc2c[nH]cn2)NC1=O [Example 39, Ac-Nle-cyclo(-Asp-His-D-Phe-Arg-Nal 1-Lys)-NH—CH2—CH3] | EC50 (MC4-R [3]): 10 nM
10 | 92 | 98 | 92 | 100 | 9 | CCCC[C@H](NC(C)=O)C(=O)N[C@H]1CC(=O)NCCCC[C@@H](C(=O)NCC)NC(=O)[C@H](Cc2cccc3ccccc23)NC(=O)[C@H](CCCNC(=N)N)NC(=O)[C@@H](Cc2ccccc2)NC(=O)[C@H](Cc2c[nH]c3ccccc23)NC1=O [Example 38, Ac-Nle-cyclo(-Asp-Trp-D-Phe-Arg-Nal 1-Lys)-NH—CH2—CH3] (Ac-[Nle]DW[dF]R[1Nal]K-NHEt; lactam 2-7) | 
0.6 | 92 | 82 | 92 | 100 | 5 | CCCC[C@H](NC(C)=O)C(=O)N[C@H]1CC(=O)NCCCC[C@@H](C(=O)N(C)C)NC(=O)[C@H](Cc2cccc3ccccc23)NC(=O)[C@H](CCCNC(=N)N)NC(=O)[C@@H](Cc2ccccc2)NC(=O)[C@H](Cc2c[nH]cn2)NC1=O [Example 37, Ac-Nle-cyclo(-Asp-His-D-Phe-Arg-Nal 1-Lys)-N(CH3)2] | EC50 (MC4-R [3]): 2.1 nM
